The source of these data is ChEMBL document CHEMBL1201862, “PubChem BioAssay data set” (2004).

Test systems include A549; BT-549; CAKI-1; CCRF-CEM; DU-145; EKVX; HCC 2998; HOP-92; HT-29; Hs-578T; KM12; NCI-H226; NCI-H460; OVCAR-3; PC-3; RPMI-8226; SK-MEL-28; SR; UACC-257; UO-31.
Common to all, as to test: NCI anticancer screen, dose series, 48 h

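Five concentrations, 48 hours, 96-well plates. GI50: concentration for 50% inhibition of growth.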 The source made the active and inactive calls. No stated cut-off is given here; in the data, active = GI50 up to about 1.1 µM and inactive = higher.

Take `Cc1cccc2c(N)c3cccc(C(=O)NCC[N+]4(Cc5ccc([N+](=O)[O-])cc5)CCOCC4)c3nc12`: the GI50 was 31.5 µM (inactive) with A549; 47.5 µM (inactive) in the test on BT-549; > 100 µM (inactive) with CAKI-1; 26.1 µM (inactive) in the test with CCRF-CEM; 27.3 µM (inactive) in the test on DU-145; 36.2 µM (inactive) in the test with EKVX. The GI50 in the test on HCC 2998 was 12.3 µM (inactive); in the test on HOP-92, 22.4 µM (inactive); in the test with HT-29, 25.8 µM (inactive); in the test on Hs-578T, 7.26 µM (inactive); in the test on KM12, 37.8 µM (inactive); with NCI-H226 it was 41 µM (inactive). The GI50 with NCI-H460 was 14.6 µM (inactive); with OVCAR-3 it was 61.1 µM (inactive); in the test with PC-3, 40.4 µM (inactive); in the test with RPMI-8226, 26.1 µM (inactive); with SK-MEL-28, 49.7 µM (inactive); in the test on SR, 20.8 µM (inactive). Also, the GI50 with UACC-257 was 60.3 µM (inactive); in the test with UO-31, 48.2 µM (inactive).
Take `NC(CCC(=O)c1ccccn1)C(=O)O` (stereo not given): the GI50 in the test with A549, in the test with BT-549, in the test on CAKI-1, with CCRF-CEM, in the test with DU-145 and in the test on EKVX was > 100 µM (inactive) each time. For the same compound, the GI50 in the test on HCC 2998, in the test with HOP-92, in the test on HT-29, in the test with Hs-578T, with KM12 and with NCI-H226 was > 100 µM (inactive) in each case. Further, the GI50 in the test on NCI-H460, in the test on OVCAR-3, in the test with PC-3, in the test with RPMI-8226, with SK-MEL-28 and in the test with SR was > 100 µM (inactive) each time. Besides, the GI50 in the test with UACC-257 and in the test with UO-31 was > 100 µM (inactive) each time.
As for `Cc1cc(C)c([S@@](=O)O[C@@H]2[C@H]3OC(C)(C)O[C@H]3O[C@@H]2[C@H]2COC(C)(C)O2)c(C)c1`, the GI50 was 29.4 µM (inactive) in the test on A549; 15.1 µM (inactive) in the test on BT-549; 2.16 µM (inactive) in the test on CAKI-1; 25.2 µM (inactive) in the test on CCRF-CEM; 29.1 µM (inactive) in the test on DU-145; 20.4 µM (inactive) in the test on EKVX. Moreover, the GI50 in the test with HCC 2998 is 22.9 µM (inactive); with HOP-92, 16.6 µM (inactive); in the test with HT-29 it was 29.7 µM (inactive); with Hs-578T it was 37.2 µM (inactive); with KM12, 18.2 µM (inactive); with NCI-H226, 24.6 µM (inactive). The GI50 in the test with NCI-H460 was 24.8 µM (inactive); with OVCAR-3, 19.7 µM (inactive); in the test on PC-3, 19.9 µM (inactive); with RPMI-8226, 17.1 µM (inactive); in the test with SK-MEL-28, 29.1 µM (inactive); in the test with SR, 15.6 µM (inactive). For the same compound, the GI50 in the test with UACC-257 was 19.5 µM (inactive); in the test on UO-31, 17.6 µM (inactive).
`N#Cc1cnc(N)nc1NCC1(CO)CC(CCc2ccccc2)C1` (stereo not given): the GI50 in the test on A549 is 14.3 µM (inactive); in the test with BT-549, > 100 µM (inactive); with CAKI-1 it was > 100 µM (inactive); in the test on CCRF-CEM, > 100 µM (inactive); with DU-145, > 100 µM (inactive); in the test with EKVX, 35.2 µM (inactive). Also, the GI50 was > 100 µM (inactive) in the test on HCC 2998; 19.7 µM (inactive) in the test on HOP-92; > 100 µM (inactive) in the test on HT-29; > 70.8 µM (inactive) in the test on Hs-578T; > 85.5 µM (inactive) with KM12; > 100 µM (inactive) in the test with NCI-H226. Moreover, the GI50 was > 100 µM (inactive) in the test on NCI-H460; > 90.4 µM (inactive) with OVCAR-3; > 91.2 µM (inactive) with PC-3; > 100 µM (inactive) in the test on RPMI-8226; > 100 µM (inactive) with SK-MEL-28; 20.1 µM (inactive) in the test with SR. Besides, the values for the GI50 in the test with UACC-257 and with UO-31 were 42.1 µM (inactive) and 20.3 µM (inactive), respectively.
Take `O=c1c2ccccc2nc2n1NC(c1c(Cl)cccc1Cl)N2c1cccc(Cl)c1` (stereo not given): the GI50 with A549 was 5.2 µM (inactive); with BT-549 it was 51.4 µM (inactive); with CAKI-1, 10.8 µM (inactive); with CCRF-CEM, > 100 µM (inactive); in the test on DU-145, 11.4 µM (inactive); in the test with EKVX it was 6.43 µM (inactive). Also, the GI50 in the test with HCC 2998 was 4.42 µM (inactive); with HOP-92, 4.52 µM (inactive); in the test with HT-29, 6.73 µM (inactive); with Hs-578T, 7.55 µM (inactive); in the test with KM12, 7.24 µM (inactive); in the test with NCI-H226, 2.56 µM (inactive). For the same compound, the GI50 in the test with NCI-H460 is 5.13 µM (inactive); in the test with OVCAR-3 it was 10.6 µM (inactive); in the test on PC-3 it was 5.11 µM (inactive); in the test with RPMI-8226 it was 4.69 µM (inactive); in the test with SK-MEL-28, 12.7 µM (inactive); in the test on SR, 8.55 µM (inactive). Moreover, the GI50 with UACC-257 is 25.2 µM (inactive); in the test with UO-31 it was 2.38 µM (inactive).
With `O=C(O)c1ccccc1CC1Cc2ccccc2C1=O` (stereo not given), the GI50 with A549, in the test on BT-549, with CAKI-1, in the test on CCRF-CEM, in the test with DU-145 and in the test on EKVX was > 100 µM (inactive) throughout. For the same compound, the GI50 with HCC 2998, in the test with HOP-92, in the test with HT-29, in the test on Hs-578T, in the test on KM12 and in the test on NCI-H226 was > 100 µM (inactive) each time. For the same compound, the GI50 in the test on NCI-H460, in the test with OVCAR-3, with PC-3, in the test on RPMI-8226, in the test on SK-MEL-28 and with SR was > 100 µM (inactive) in each case. Also, the GI50 with UACC-257 and in the test on UO-31 was > 100 µM (inactive) each time.
With `COC(=O)[C@]1(C)CCC[C@]2(C)[C@H]3CC[C@]4(C(C)C)OO[C@@H](O4)[C@]34O[C@@H]4C[C@H]21`, the GI50 in the test on A549 is 1.81 µM (inactive); with BT-549 it was 4.81 µM (inactive); with CAKI-1, 0.384 µM (active); with CCRF-CEM, 0.5 µM (active); in the test with DU-145 it was 1.64 µM (inactive); with EKVX, 1.87 µM (inactive). Further, the GI50 was 2.15 µM (inactive) in the test with HCC 2998; 1.97 µM (inactive) in the test on HOP-92; 1.82 µM (inactive) with HT-29; 2.63 µM (inactive) in the test with Hs-578T; 2.86 µM (inactive) in the test with KM12; 4.49 µM (inactive) in the test with NCI-H226. Moreover, the GI50 with NCI-H460 is 1.88 µM (inactive); in the test with OVCAR-3, 1.8 µM (inactive); with PC-3 it was 1.48 µM (inactive); in the test with RPMI-8226 it was 3.44 µM (inactive); in the test with SK-MEL-28, 16.3 µM (inactive); in the test with SR it was 0.238 µM (active). For the same compound, the GI50 with UACC-257 was 14.9 µM (inactive); in the test on UO-31, 0.641 µM (active).
On to `CC(C)C1CC(CO)(CNc2nc(N)nc(Cl)c2/C=N\O)C1` (stereo not given), for which the GI50 was 1.76 µM (inactive) in the test on A549; 11.7 µM (inactive) with BT-549; 11.9 µM (inactive) in the test on CAKI-1; 13.6 µM (inactive) in the test with CCRF-CEM; 15.6 µM (inactive) in the test with DU-145; 0.264 µM (active) with EKVX. Moreover, the GI50 is 3.94 µM (inactive) with HCC 2998; 12.5 µM (inactive) in the test on HOP-92; 4.34 µM (inactive) in the test on HT-29; 15.9 µM (inactive) in the test with Hs-578T; 2.03 µM (inactive) with KM12; 14.8 µM (inactive) in the test on NCI-H226. Moreover, the GI50 is 0.685 µM (active) in the test on NCI-H460; 13.7 µM (inactive) with OVCAR-3; 9.27 µM (inactive) with PC-3; 2.64 µM (inactive) in the test on RPMI-8226; 12.8 µM (inactive) with SK-MEL-28; 0.507 µM (active) in the test with SR. In addition, the GI50 with UACC-257 is 0.656 µM (active); with UO-31, 9.27 µM (inactive).
Consider `CC(C)(C)OC(=O)/C=C/[C@@H](CCC(=O)/C=C/[C@H](/C=C\CCCC(=O)O)NC1(c2ccccc2)c2ccccc2-c2ccccc21)O[Si](C)(C)C(C)(C)C`, for which the GI50 was 14.3 µM (inactive) in the test with A549; 16.5 µM (inactive) with BT-549; 17.9 µM (inactive) in the test on CAKI-1; 29.2 µM (inactive) in the test on CCRF-CEM; 16.6 µM (inactive) with DU-145; 19.2 µM (inactive) in the test on EKVX. The GI50 with HCC 2998 is 16.8 µM (inactive); in the test with HOP-92 it was 4.8 µM (inactive); with HT-29, 14.7 µM (inactive); with Hs-578T it was 38.9 µM (inactive); with KM12 it was 18.1 µM (inactive); in the test with NCI-H226 it was 18.3 µM (inactive). Besides, the GI50 in the test with NCI-H460 was 17.6 µM (inactive); in the test with OVCAR-3 it was 16.7 µM (inactive); with PC-3, 13.5 µM (inactive); in the test on RPMI-8226 it was 10.5 µM (inactive); in the test on SK-MEL-28, 25.8 µM (inactive); with SR it was 19.4 µM (inactive). Besides, the GI50 in the test on UACC-257 is 17.8 µM (inactive); in the test with UO-31, 15.2 µM (inactive).
`COc1ccc(/C=C2\CN(C)CC3=C2OC(N)=C(C#N)C3c2ccc(OC)cc2)cc1` (stereo not given): the GI50 was 23 µM (inactive) in the test with A549; > 100 µM (inactive) in the test on BT-549; 69.7 µM (inactive) in the test with CAKI-1; 7.57 µM (inactive) in the test on CCRF-CEM; > 76.6 µM (inactive) in the test with DU-145; 43.4 µM (inactive) with EKVX. Besides, the GI50 in the test on HCC 2998 is 23.8 µM (inactive); in the test with HOP-92 it was 4.66 µM (inactive); with HT-29, > 56.8 µM (inactive); with Hs-578T, 88.1 µM (inactive); in the test with KM12, > 56.5 µM (inactive); with NCI-H226, > 100 µM (inactive). Further, the GI50 was 24.9 µM (inactive) in the test on NCI-H460; 21.6 µM (inactive) with OVCAR-3; > 25.8 µM (inactive) in the test with PC-3; 9.82 µM (inactive) with RPMI-8226; > 100 µM (inactive) in the test on SK-MEL-28; 15.2 µM (inactive) in the test with SR. Further, the GI50 was 50.5 µM (inactive) in the test with UACC-257 and > 50.5 µM (inactive) in the test with UO-31.
